Results as given in PubChem BioAssay (NCI).
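A five-concentration, 48-hour dose response in 96-well plates underlies each endpoint, interpolated linearly between surrounding concentrations. GI50: concentration for 50% inhibition of growth. TGI marks complete inhibition of growth.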

Assays:
Assay in all cases: inhibition of tumour cell growth, NCI panel, 48 h
786-0 renal = system: 786-0 renal
A498 renal = system: A498 renal
A549 NSCLC = system: A549 NSCLC
ACHN renal = system: ACHN renal
BT-549 breast = system: BT-549 breast
CAKI-1 renal = system: CAKI-1 renal
CCRF-CEM leukemia = system: CCRF-CEM leukemia
COLO 205 colon = system: COLO 205 colon
DU-145 prostate = system: DU-145 prostate
EKVX NSCLC = system: EKVX NSCLC
HCC-2998 colon = system: HCC-2998 colon
HCT-116 colon = system: HCT-116 colon
HCT-15 colon = system: HCT-15 colon
HL-60(TB) leukemia = system: HL-60(TB) leukemia
HOP-62 NSCLC = system: HOP-62 NSCLC
HOP-92 NSCLC = system: HOP-92 NSCLC
HS 578T breast = system: HS 578T breast
HT29 colon = system: HT29 colon
IGROV1 ovarian = system: IGROV1 ovarian
K-562 leukemia = system: K-562 leukemia
KM12 colon = system: KM12 colon
LOX IMVI melanoma = system: LOX IMVI melanoma
M14 melanoma = system: M14 melanoma
MALME-3M melanoma = system: MALME-3M melanoma
MCF7 breast = system: MCF7 breast
MDA-MB-231 breast = system: MDA-MB-231 breast
MDA-MB-435 = system: MDA-MB-435
MDA-MB-468 breast = system: MDA-MB-468 breast
MOLT-4 leukemia = system: MOLT-4 leukemia
NCI-H226 lung = system: NCI-H226 lung
NCI-H23 lung = system: NCI-H23 lung
NCI-H460 lung = system: NCI-H460 lung
NCI-H522 lung = system: NCI-H522 lung
NCI/ADR-RES ovarian = system: NCI/ADR-RES ovarian
OVCAR-3 ovarian = system: OVCAR-3 ovarian
OVCAR-4 ovarian = system: OVCAR-4 ovarian
OVCAR-5 ovarian = system: OVCAR-5 ovarian
OVCAR-8 ovarian = system: OVCAR-8 ovarian
PC-3 prostate = system: PC-3 prostate
RPMI-8226 leukemia = system: RPMI-8226 leukemia
RXF 393 renal = system: RXF 393 renal
SF-268 CNS = system: SF-268 CNS
SF-295 CNS = system: SF-295 CNS
SF-539 CNS = system: SF-539 CNS
SK-MEL-2 melanoma = system: SK-MEL-2 melanoma
SK-MEL-28 melanoma = system: SK-MEL-28 melanoma
SK-MEL-5 melanoma = system: SK-MEL-5 melanoma
SK-OV-3 ovarian = system: SK-OV-3 ovarian
SN12C renal = system: SN12C renal
SNB-19 CNS = system: SNB-19 CNS
SNB-75 CNS = system: SNB-75 CNS
SR leukemia = system: SR leukemia
SW-620 colon = system: SW-620 colon
T-47D breast = system: T-47D breast
TK-10 renal = system: TK-10 renal
U251 CNS = system: U251 CNS
UACC-257 melanoma = system: UACC-257 melanoma
UACC-62 melanoma = system: UACC-62 melanoma
UO-31 renal = system: UO-31 renal

Molecule `Cc1ccc(C2CC(c3ccc(NC(=O)Nc4ccccc4)cc3)=NN2c2ccc(S(N)(=O)=O)cc2)cc1` (stereo not drawn) has a GI50 (786-0 renal) of 3.86 µM, a TGI (786-0 renal) of 15.7 µM and a GI50 (A498 renal) of 9.06 µM. It also gave a TGI (A498 renal) of 21.3 µM, a GI50 (A549 NSCLC) of 3.36 µM and a TGI (A549 NSCLC) of 14.7 µM. The GI50 (ACHN renal) was 4.16 µM, the TGI (ACHN renal) was 14.9 µM and the GI50 (BT-549 breast) was 7.84 µM. It also gave a TGI (BT-549 breast) of 20.9 µM, a GI50 (CAKI-1 renal) of 10.4 µM and a TGI (CAKI-1 renal) of 22.5 µM. For the same molecule, the GI50 (CCRF-CEM leukemia) was 3.98 µM, the TGI (CCRF-CEM leukemia) was 22 µM and the GI50 (COLO 205 colon) was 4.22 µM. The TGI (COLO 205 colon) was 18.6 µM, the GI50 (DU-145 prostate) was 10.2 µM and the TGI (DU-145 prostate) was 23 µM. For the same molecule, the GI50 (EKVX NSCLC) was 4.04 µM, the TGI (EKVX NSCLC) was 16.4 µM and the GI50 (HCC-2998 colon) was 2.65 µM. For the same molecule, the TGI (HCC-2998 colon) was 8.77 µM, the GI50 (HCT-116 colon) was 2.99 µM and the TGI (HCT-116 colon) was 13.5 µM. For the same molecule, the GI50 (HCT-15 colon) was 4.35 µM, the TGI (HCT-15 colon) was 16.9 µM and the GI50 (HL-60(TB) leukemia) was 2.13 µM. It also gave a TGI (HL-60(TB) leukemia) of 10.6 µM, a GI50 (HOP-62 NSCLC) of 13.3 µM and a TGI (HOP-62 NSCLC) of 28.7 µM. The GI50 (HOP-92 NSCLC) was 3.21 µM, the TGI (HOP-92 NSCLC) was 14.8 µM and the GI50 (HS 578T breast) was 14.8 µM. For the same molecule, the TGI (HS 578T breast) was 39.1 µM, the GI50 (HT29 colon) was 2.3 µM and the TGI (HT29 colon) was 7.45 µM. It also gave a GI50 (IGROV1 ovarian) of 6.9 µM, a TGI (IGROV1 ovarian) of 20.3 µM and a GI50 (K-562 leukemia) of 3.94 µM. For the same molecule, the TGI (K-562 leukemia) was > 100 µM, the GI50 (KM12 colon) was 5.57 µM and the TGI (KM12 colon) was 22.1 µM. The GI50 (LOX IMVI melanoma) was 1.76 µM, the TGI (LOX IMVI melanoma) was 3.23 µM and the GI50 (M14 melanoma) was 9.27 µM. For the same molecule, the TGI (M14 melanoma) was 27.2 µM, the GI50 (MALME-3M melanoma) was 7.88 µM and the TGI (MALME-3M melanoma) was 20.8 µM. For the same molecule, the GI50 (MCF7 breast) was 3.56 µM, the TGI (MCF7 breast) was 15.2 µM and the GI50 (MDA-MB-231 breast) was 12.3 µM. It also gave a TGI (MDA-MB-231 breast) of 25.3 µM, a GI50 (MDA-MB-435) of 6.83 µM and a TGI (MDA-MB-435) of 21.3 µM. The GI50 (MDA-MB-468 breast) was 10.2 µM, the TGI (MDA-MB-468 breast) was 24 µM and the GI50 (MOLT-4 leukemia) was 2.98 µM. For the same molecule, the TGI (MOLT-4 leukemia) was 14.1 µM, the GI50 (NCI-H226 lung) was 10.9 µM and the TGI (NCI-H226 lung) was 24.9 µM. For the same molecule, the GI50 (NCI-H23 lung) was 3.57 µM, the TGI (NCI-H23 lung) was 14.3 µM and the GI50 (NCI-H460 lung) was 2.99 µM. The TGI (NCI-H460 lung) was 12.5 µM, the GI50 (NCI-H522 lung) was 2.84 µM and the TGI (NCI-H522 lung) was 15 µM. For the same molecule, the GI50 (NCI/ADR-RES ovarian) was 2.83 µM, the TGI (NCI/ADR-RES ovarian) was 11 µM and the GI50 (OVCAR-3 ovarian) was 3.97 µM. The TGI (OVCAR-3 ovarian) was 18.7 µM, the GI50 (OVCAR-4 ovarian) was 4.5 µM and the TGI (OVCAR-4 ovarian) was 17.2 µM. The GI50 (OVCAR-5 ovarian) was 12.4 µM, the TGI (OVCAR-5 ovarian) was 25.2 µM and the GI50 (OVCAR-8 ovarian) was 5.58 µM. For the same molecule, the TGI (OVCAR-8 ovarian) was 21.4 µM, the GI50 (PC-3 prostate) was 2.6 µM and the TGI (PC-3 prostate) was 12.8 µM. The GI50 (RPMI-8226 leukemia) was 3.8 µM, the TGI (RPMI-8226 leukemia) was 35.9 µM and the GI50 (RXF 393 renal) was 13.1 µM. The TGI (RXF 393 renal) was 27.6 µM, the GI50 (SF-268 CNS) was 10.2 µM and the TGI (SF-268 CNS) was 24 µM. The GI50 (SF-295 CNS) was 5.34 µM, the TGI (SF-295 CNS) was 18.8 µM and the GI50 (SF-539 CNS) was 12.7 µM. The TGI (SF-539 CNS) was 25.4 µM, the GI50 (SK-MEL-2 melanoma) was 7.4 µM and the TGI (SK-MEL-2 melanoma) was 21.5 µM. For the same molecule, the GI50 (SK-MEL-28 melanoma) was 10.5 µM, the TGI (SK-MEL-28 melanoma) was 22.5 µM and the GI50 (SK-MEL-5 melanoma) was 15.5 µM. For the same molecule, the TGI (SK-MEL-5 melanoma) was 29.5 µM, the GI50 (SK-OV-3 ovarian) was 12.9 µM and the TGI (SK-OV-3 ovarian) was 27.1 µM. For the same molecule, the GI50 (SN12C renal) was 3.92 µM, the TGI (SN12C renal) was 14.5 µM and the GI50 (SNB-19 CNS) was 12.7 µM. For the same molecule, the TGI (SNB-19 CNS) was 25.4 µM, the GI50 (SNB-75 CNS) was 10.7 µM and the TGI (SNB-75 CNS) was 24 µM. It also gave a GI50 (SR leukemia) of 4.28 µM, a TGI (SR leukemia) of 26.7 µM and a GI50 (SW-620 colon) of 5.53 µM. The TGI (SW-620 colon) was 22.3 µM, the GI50 (T-47D breast) was 3.37 µM and the TGI (T-47D breast) was 14.6 µM. The GI50 (TK-10 renal) was 9.93 µM, the TGI (TK-10 renal) was 22.2 µM and the GI50 (U251 CNS) was 6.86 µM. For the same molecule, the TGI (U251 CNS) was 20.3 µM, the GI50 (UACC-257 melanoma) was 8.48 µM and the TGI (UACC-257 melanoma) was 22 µM. The GI50 (UACC-62 melanoma) was 10.4 µM, the TGI (UACC-62 melanoma) was 22.6 µM and the GI50 (UO-31 renal) was 3.45 µM. The TGI (UO-31 renal) was 14.6 µM.
